From ChEMBL document CHEMBL1156443, “Guanidinylated neomycin delivers large, bioactive cargo into cells through a heparan sulfate-dependent pathway” (J Biol Chem, 2007) come the findings set out here.

Broadly, the IC50 is the concentration that gives 50% inhibition.

SMILES strings stand for the structures. Calls of active or inactive are those of the source. No cut-off for these calls is given here.

The subject of series [1] is CHO. The series can be described thus: Inhibition of arg9 binding to CHO pgsA745 mutant cells after 1 hr by flow cytometry. It is filed as cell-based.
For series [2], the system named is CHO. Kind of series: Inhibition of arg9 binding to CHO cells after 1 hr by flow cytometry. It is filed as cell-based.
The target in series [3] is Fibroblast growth factor 2 (Homo sapiens, UniProt P09038). The series can be described thus: Binding affinity to biotinylated FGF2 in CHO cells by flow cytometry. It is filed as cell-based. Background: Flow cytometry measures light scatter and fluorescence of single cells or particles in a stream.
Fibroblast growth factor 2, sequence (P09038 143-288 limits assumed): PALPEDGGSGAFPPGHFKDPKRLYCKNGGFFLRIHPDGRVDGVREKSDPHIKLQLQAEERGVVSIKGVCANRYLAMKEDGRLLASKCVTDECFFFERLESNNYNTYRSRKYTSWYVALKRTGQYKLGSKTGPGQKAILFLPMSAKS
Series [4] has as its system CHO. Kind of series: Cytotoxicity against CHO pgsA745 mutant cells upto 100 nM after 4 days by Cell-Titer assay. The format is cell-based, Cricetulus griseus. The note with it: chinese hamster, 96 h.
The test system of series [5] is CHO. The series can be described thus: Cytotoxicity against CHO cells upto 100 nM after 4 days by Cell-Titer assay. It is filed as cell-based, Cricetulus griseus. The settings on record: chinese hamster, 96 h.

For the compound `N=C(N)NC[C@@H]1O[C@H](O[C@H]2[C@@H](O)[C@H](O[C@@H]3[C@@H](O)[C@H](NC(=N)N)C[C@H](NC(=N)N)[C@H]3O[C@H]3O[C@H](CNC(=N)N)[C@@H](O)[C@H](O)[C@H]3NC(=N)N)O[C@@H]2CO)[C@H](NC(=N)N)[C@@H](O)[C@@H]1O` [GUANIDINONEOMYCIN], the result in the series with CHO [1] was inactive. Moreover, the outcome with CHO [2] was Active. The IC50 in series [3] is 20 µM.

For the compound `N=C(N)NC[C@@H]1O[C@H](O[C@H]2[C@@H](O)[C@H](O[C@@H]3[C@@H](O)[C@H](NC(=N)N)C[C@H](NC(=N)N)[C@H]3O[C@H]3O[C@H](CNC(=N)N)[C@@H](O)[C@H](O)[C@H]3NC(=N)N)O[C@@H]2CSCCNC(=O)CCCCCNC(=O)CCCC[C@@H]2SCC3NC(=O)NC32)[C@H](NC(=N)N)[C@@H](O)[C@@H]1O` (stereo not given in full), the Activity entry in the series with CHO [4] and in the series on CHO [5] was “Non-toxic” each time.
